Data as given in patent publication US20090131537A1, “Wound healing compositions” (priority 2007, published 2009).
Entries after “also recorded” stand apart in the source; their conditions may differ. Where two headings read alike, the source gives them in different places. Values belong to the compound of their own block, whether it stands above or below them.

How the values were obtained:
[1] = test system: adult human keratinocytes; conditions: cited from earlier work
c-neu = assay: indirect immunofluorescence c-neu staining of keratinocytes propagated with retinoic acid; type: cell-based, human; conditions: 5×10^−8 M all-trans retinoic acid
Description: In order to determine whether retinoids like retinyl acetate induced autocrine secretion of an EGF-like protein growth factor that binds to an EGF-like cell surface receptor, we designed an experiment using the erbB antibody purchased from Oncogene Sciences (Manhasset, N.Y.) and performed indirect immunofluoresnce (IIF) cytochemistry on fixed normal human neonatal foreskin keratinocytes prepared according to previous studies (Wille et al., 1984). The technique of indirect immunofluorescene was performed according to the antibody manufacturers instructions for c-neu antibody. The neu oncogene was discovered after serial transformation of cells using rat neuroblastoma DNA. The isolated oncogene hybridizes with v-erbB and has 50% homology to the normal EGF receptor, a tyrosine kinase type enzyme protein. The proto-oncogene for neu is designated c-erb-2.
Normal human keratinocytes were propagated in a serum free medium composition containing 5×10.up.−8M all-trans retinoic acid, fixed and prepared for c-neu staining and detection by IIF as described in Experiment 1. […] We interpret this to mean that retinoid stimulation of autocrine growth proceeds through phosphorylation of an EGF-like receptor at points of cell-to-cell contact, which usually is only seen is post-mitotic suprabasal cells.

[2] = test system: normal human keratinocytes; conditions: added to serum free growth factor supplemented medium; cited from earlier work
HaCat keratinocytes [3] = assay: clonal growth assay of HaCat keratinocytes with growth factor/retinoid supplements; type: cell-based, human; conditions: for keratinocyte clonal growth: FIG. 1
Procedure: In the following experiment, the effect of on keratinocyte growth of adding single or multiple additives to standard medium (Std) was examined in a clonal growth assay performed according to the methods described previously (Wille et al., 1984). Briefly, a sterile […] plastic disposable Petri dish is seed with 5,000 high cloning HaCat cells, and refed complete (E^+I^+) serum free HECK 109 medium at incubated at 37° C. for 24 to 48 hours. The cells are washed with ice-cold Standard HECK 109 medium and refed various combinations of growth factors and retinyl acetate (RetAC).
FIG. 1 presents a photograph showing the results of incubating the HaCat seeded clonal assay dishes various supplements. The cells were fixed with 50% ethanol and stained with 0.2% crystal violet stain. This imparts a blue color to the cells. The stained dishes were then photographed.
In a second series of experiments the HaCat keratinocyte clonal growth after one day (D1) was compared for the combination: insulin plus retinyl acetate (Ins+Rac, D1) and the combination: EGF plus insulin (EI, D1). […] In these studies, insulin was also a necessary growth factor when used in combination with retinyl acetate. This may reflect the often-observed phenomenon of “carry-over” of bound EGF on cell surface growth factor receptor.

HaCat keratinocytes [4] = assay: wound healing zone (WHZ) wound gap closure in confluent HaCat keratinocyte sheets; type: cell-based, human; conditions: for healing of WHZ: 24 hours, with insulin
Procedure: Keratinocytes were grown in a serum free medium supplemented with 5 ng/ml EGF and 5 ug/ml insulin and 0.2% fetal bovine serum and reseeded at 1×10^5 cells per cm^2 in to 35 mm 2 circular disposable Petri dishes and incubated at 37° C. until the cells completely filled the dish. These confluent cultures were then washed with ice-cold basal MCDB serum free medium and refed a serum free medium of the present invention whose composition is as shown in Table 1. A 2.5 mm linear wound was made across the midline of the diameter of the confluent culture with a 2.5 mm diameter heat-sealed tip of a 9 inch sterile Pasteur pipette. […] Wound of this diameter were routinely and reproducibly made by this technique and allow study of the effect of any agent that might have an effect on wound healing by measuring the delay in time it takes to fill in the wound gap of the WHZ.
FIG. 6 is a photograph of 9 culture dishes fixed with 50% ethanol and stained with 0.2% crystal violet 24 hours after forming the WHZ and incubated in the serum free medium of this invention containing varying doses of retinyl acetate. The experiment was performed in duplicate dishes. There is only one dish labeled 3E-5 as its duplicate was contaminated with mold and was eliminated. Control dishes were refed serum free medium supplemented with insulin but no retinyl acetate. All of the other dishes were r3efed serum free medium with insulin and increasing amount of retinyl acetate. The mi9d line WHZ was filled by epidermal keratinocyte migration and cell growth in all of the dishes except for cultures that had retinyl acetate at concentrations greater than 3×10^−6 M.
FIG. 7 show photomicrographs comparing wound closure in the WHZ for cultures of HaCat keratinocytes fixed and stained with crystal violet stain and photographed with bright field illumination.

HaCat keratinocytes [5] = assay: inhibition of retinoid-induced autocrine growth of HaCat keratinocytes by receptor tyrosine kinase inhibitor; type: cell-based, human; conditions: standard medium + 5 ug/ml insulin + 3×10^−8 M retinyl acetate, d1, FIG. 5
Procedure: In this experiment a selective inhibitor of receptor tyrosine protein phosphokinase was added to a culture of HaCat keratinocytes immediately prior to replacing the growth factor replete medium with HECK 110 serum free medium containing the combination insulin and retinyl acetate to induce autocrine growth. FIG. 5 presents a photograph showing three culture dishes with the following growth conditions: A. Standard growth medium (Std, d1); B. Standard growth medium containing the combination: 5 ug/ml insulin plus 3×10^−8M retinyl acetate (Ins+RAc, d1) and C. standard medium containing the combination: 5 ug/ml insulin, 3×10^−8M retinyl acetate and 2 uM of receptor tyrosine protein kinase inhibitor (Ins+Rac+RTKI, d1).

Compound: CC1=C(/C=C/C(C)=C/C=C/C(C)=C/C(=O)O)C(C)(C)CCC1 [all-trans retinoic acid]
effect on keratinocyte growth ([1]; concentrations lower than the optimal 0.5 ng/ml): ineffective
effect on keratinocyte growth ([1]; growth factor deficient medium, growth arrested cells, 0.1-2.5 ng/ml): stimulated growth
optimal concentration required to produce the growth stimulation ([1]; growth factor deficient medium): 0.5 ng/mL
effect on keratinocyte proliferation ([1]; growth factor-supplemented medium, 0.1-2.5 ng/ml): inhibited proliferation
rate of keratinocyte proliferation relative to maximal rate in growth factor supplemented medium ([1]; retinoid-stimulated cultures, growth factor deficient medium): approximately 35%
c-neu staining pattern (c-neu; no alkaline phosphatase pre-treatment, FIG. 4A): virtually all of the positive staining was strictly localized to focal adherence areas
c-neu phosphorylation (c-neu; with alkaline phosphatase pretreatment, FIG. 4B): induced a labile phosphorylation of c-neu only at the focal adherence sites
effect on clonal growth [2]: inhibits the clonal growth

Compound: insulin: protein growth factor insulin, supplement of serum free medium
keratinocyte clonal growth (HaCat keratinocytes [3]; standard medium + insulin 5 ug/ml only (Std+Ins)): less effective; also recorded: stimulated to grow

HaCat growth, dish B versus dishes A and C (HaCat keratinocytes [5]): significant growth
Compound: CC(=O)OC/C=C(C)/C=C/C=C(C)/C=C/C1=C(C)CCCC1(C)C (racemic) [retinyl acetate]
keratinocyte clonal growth after one day (D1) compared with EGF plus insulin (HaCat keratinocytes [3]; 5 ug/ml insulin + 3×10^−8 M retinyl acetate, D1, FIG. 2): stimulated keratinocyte growth as well as the combination (EI)
keratinocyte clonal growth (HaCat keratinocytes [3]; standard medium (Std) + 3×10^−8 M retinyl acetate alone): little if any keratinocyte growth
keratinocyte clonal growth (HaCat keratinocytes [3]; standard medium + 5 ug/ml insulin and 3×10^−8 M retinyl acetate): sufficient to support the growth; also recorded: the best result was stimulation of keratinocyte growth
healing of WHZ (HaCat keratinocytes [4]; 3×10^−5 M retinyl acetate): incomplete healing; also recorded: no healing; also recorded: complete failure to fill in the WHZ gap
healing of WHZ (HaCat keratinocytes [4]; 3×10^−6 M retinyl acetate): incomplete healing
healing in the WHZ (HaCat keratinocytes [4]; 3×10^−7 M retinyl acetate): ~100%
healing of WHZ (HaCat keratinocytes [4]; 3×10^−7 M retinyl acetate): complete wound healing
healing of WHZ (HaCat keratinocytes [4]; 3×10^−8 M retinyl acetate): complete healing
